The source of these data is US20090203661A1, “Betulinic acid, derivatives and analogs thereof and uses therefor” (priority 2006, published 2009).

One test has as its system HT-29 cells. As to the kind of experiment: miR-27a and ZBTB10 mRNA expression in HT-29 cells. Type of test: cell-based, human.
The next test deals with 3T3-L1 adipocytes. Nature of the test: 3T3-L1 differentiation and Oil Red O staining. Format: cell-based. As to conditions: 0.25 μM. On the procedure: 3T3-L1 preadipocytes were cultured on poly-lysine-coated coverslips with DMEM and 10% FBS at 5% CO2 in 24-well plates. At 2 days post-confluence, cells were incubated with fresh media supplemented with 3-isobutyl-1-methylxanthine (0.5 mM), dexamethasone (1 μM), insulin (1.7 μM), and indicated compounds (0.25 μM). After 48 hr, cells were changed to fresh media and treated with DMSO or indicated compounds for 5 days. Cells without any treatment for the entire 7 days were used as control. The cells were then fixed with 10% formalin. Fixed cells were washed with 60% isopropanol and stained with filtered 60% Oil Red O in deionized water. After staining, cells were washed with water and photographed.

The test system of another test is SW480 cells. Nature of the test: KLF4 mRNA (RT-PCR) in SW480 cells. Format: cell-based, human. Here is the method:
SW480 and HT29 colon cancer cells were treated either with vehicle (DMSO) or indicated compounds and after 24 hr total RNA was extracted using RNeasy Mini kit (Qiagen, Inc., Valencia, Calif.). RNA concentration was measured by UV 260:280 nm absorption ratio and 2 μg RNA was used to synthesize cDNA using Reverse Transcription System (Promega). PCR conditions were as follows: initial denaturation at 94° C. (1 min) followed by 28 cycles of denaturation for 30 s at 94° C., annealing for 60 s at 55° C. and extension at 72° C. for 60 s and a final extension step at 72° C. for 5 min. The mRNA levels were normalized using GAPDH as an internal housekeeping gene. Primers obtained from IDT and used for amplification are as follows: KLF4 (sense 5′-CTATGGCAGGGAGTCCGCTCC-3′ (SEQ ID NO: 1); antisense 5′-ATGACCGACGGGCTGCCGTAC-3′ (SEQ ID NO: 2)) and GAPDH (sense 5′-ACGGATTTGGTCGTATTGGGCG-3′ (SEQ ID NO: 3); antisense 5′-CTCCTGGAAGATGGTGATGG-3′ (SEQ ID NO: 4). PCR products were electrophoresed on 1% agarose gels containing ethidium bromide and visualized under UV transillumination.

In the next test the target is T1, PPARγ (Homo sapiens, UniProt P37231).
T1 construct: containing the DEF region of the PPARγ (amino acids 183-505) fused to the pVP16 expression vector; expressed in transfected cells; host or cells: SW480 colon cancer cells; plasmid provided by Dr. Shigeaki Kato (University of Tokyo)
T1 sequence (P37231 183-505): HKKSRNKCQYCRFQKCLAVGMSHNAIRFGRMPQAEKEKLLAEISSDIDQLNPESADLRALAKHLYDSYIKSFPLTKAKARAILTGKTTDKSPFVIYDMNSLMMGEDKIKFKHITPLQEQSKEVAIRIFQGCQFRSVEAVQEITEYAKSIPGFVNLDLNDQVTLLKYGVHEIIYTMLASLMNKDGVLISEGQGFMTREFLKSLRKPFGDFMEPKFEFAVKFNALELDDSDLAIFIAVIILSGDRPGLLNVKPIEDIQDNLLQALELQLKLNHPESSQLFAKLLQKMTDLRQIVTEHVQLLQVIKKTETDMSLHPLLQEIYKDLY
As to the kind of experiment: Mammalian two-hybrid assay (VP-PPARγ / GAL4-coactivator) in SW480 cells. Type of test: cell-based. On the procedure:
The GAL4 reporter construct containing 5×GAL4 response elements (p GAL4) was provided by Dr. Marty Mayo (University of […], Chapel Hill, N.C.). The GAL4-coactivator fusion plasmids pM-SRC1, pMSRC2, pMSRC3, pM-DRIP205, pM-CARM-1 and PPARγ-VP16 fusion plasmid (Vp-PPARγ) containing the DEF region of the PPARγ (amino acids 183-505) fused to the pVP16 expression vector were provided by Dr. Shigeaki Kato (University of Tokyo, Tokyo, Japan). SW480 colon cancer cells were plated in 12-well tissue culture plates at 1×10^5 cells per well in DMEM/Ham's F-12 medium supplemented with 2.5% charcoal stripped FBS.
After allowing them to adhere overnight, transient transfections were carried out with GAL4-Luc (0.4 μg), β-GAL (0.04 μg), VP-PPARγ (0.04 μg), pM-SRC1 (0.04 μg), pM-PGC-1 (0.04 μg), pM-SMRT (0.04 μg), pM-TRAP220 (0.04 μg), pM-DRIP205 (0.04 μg), and pMCARM1 (0.04 μg) using LipofectAMINE2000 (Invitrogen) following the manufacturer's guidelines. After 6 hr of transfection, cells were treated in triplicate either with vehicle (DMSO) or the indicated compound suspended in complete medium for 20-24 hr. One hundred μL per well of 1× Reporter Lysis Buffer (Promega) was used to lyse the cells and 30 μl of this lysate was used to perform the luciferase and β-GAL assays using Lumicount (Perkin-Elmer Life and Analytical Sciences, Boston, Mass.). The luciferase activities obtained were normalized to the β-gal activity.

The subject of a further test is RKO colon cancer cells. As to the kind of experiment: Western blot of proapoptotic responses and Sp proteins in RKO cells. Type of test: cell-based. Here is the method:
RKO cells were […] with BA or CN-BA for 24 hr and whole cell lysates were examined by Western blot analysis.
RKO colon cancer cells were treated with BA/CN-BA for 24 hr (FIG. 15A) or 48 hr (FIG. 15B) and Miapaca-2 pancreatic cancer cells were treated with BA/CN-BA for 24 hr (FIG. 15C). Whole cell lysates were examined by Western blot analysis.

`COC(=O)C12CCC(C(C)C)C1C1CCC3C4(C)C=C(C#N)C(=O)C(C)(C)C4CCC3(C)C1(C)CC2` (stereo not drawn) [CN-BA-Me, Methyl 2-cyano-lup-1-en-3-oxo-20-oate]: in the test on HT-29 cells, the ZBTB10 expression result is “increased expression of ZBTB10” and the miR-27a expression result is reported as “decreased expression of miR-27a”. In addition, the “Oil Red O staining (fat droplets)” value in the test with 3T3-L1 adipocytes is “induce Oil Red O staining”. For the same compound, the KLF4 expression entry with SW480 cells is “did not induce KLF4 expression”. Besides, on PPARγ, the “activation of GAL4-CARM1” value is “activated”; the “luciferase activity, VP-PPARγ with GAL4 PGC-1 and GAL4 SRC-1” value is on record as “significantly induced luciferase activity”.

For `CC(C)C1CCC2(C(=O)O)CCC3(C)C(CCC4C5(C)C=C(C#N)C(=O)C(C)(C)C5CCC43C)C12` (stereo not drawn) [CN-BA], in the test on HT-29 cells, the ZBTB10 expression result was “increased expression of ZBTB10” and the miR-27a expression result is “decreased expression of miR-27a”. Moreover, the Sp protein expression result in the test with RKO colon cancer cells (24 and 48 hr) is listed as “decrease Sp protein expression”. Moreover, in the test on RKO colon cancer cells (24 hours), the “ATF3, JNK phosphorylation, CHOP and DR5” value is recorded as “activate”; the proapoptotic responses entry was “activate proapoptotic responses”. In addition, in the test with 3T3-L1 adipocytes, the “Oil Red O staining (fat droplets)” value is reported as “induce Oil Red O staining”. Moreover, in the test with SW480 cells, the KLF4 expression result is listed as “did not induce KLF4 expression”. For the same compound, on PPARγ, the “luciferase activity, VP-PPARγ with GAL4 PGC-1 and GAL4 SRC-1” value is “significantly induced luciferase activity”.

With `C=C(C)[C@@H]1CC[C@]2(C(=O)O)CC[C@]3(C)[C@H](CC[C@@H]4[C@@]5(C)CC[C@H](O)C(C)(C)[C@@H]5CC[C@]43C)[C@@H]12` [betulinic acid, Betulinic acid], the “concentrations decreasing Sp proteins” value in the test with RKO colon cancer cells (48 hr) lay in the range of 1 to 5 µM.
